{"source": "paper PMC5352362", "about": "“Molecular and functional evaluation of a novel HIF inhibitor, benzopyranyl 1,2,3-triazole compound” (Oncotarget, 2016)", "key": {"[1]": {"system": "angiogenesis (hemoglobin content of Matrigel plug)", "assay": "Matrigel plug assay in C57BL/6J mice", "type": "in vivo, mouse", "conditions": "Compound 12 100 nM, gefitinib 5 μM in Matrigel, 10 days", "protocol": "HIF-1α is synthesized by growth factor signaling pathways, such as those of EGFR [30] [31]. Inhibition of HIF-1α in its pathways of synthesis, as well as in its pathway of degradation, would seem to make for a more efficient anti-cancer/anti-angiogenesis treatment. To confirm this, we performed a tumor allogaft experiment using Lewis lung carcinoma (LLC) cells. 1 × 10^6 LLC cells were inoculated into the mouse flank subcutaneously (s.c.), and treatment with Compound 12 (5 mg/kg) and/or gefitinib (an EGFR inhibitor, 50 mg/kg), via intraperitoneal (i.p.) administration, was performed every other day for 20 days. […] To confirm the effect of Compound 12 on angiogenesis, we analyzed angiogenesis using the Matrigel plug assay. […]\nFigure 6 Compound 12 suppressed allogaft tumor growth and enhanced the effects of a chemotherapeutic agent (A, B) Lewis lung carcinoma cells were inoculated into flanks of C57BL/6J mice (Day 0). […] Tumor size (A) and tumor weight (B) were measured three times a week and on the final day, respectively. […] The content of hemoglobin was quantified and graphed. (D) Tumor tissue sections (10 μm) indicated were stained with H&E and immunostained with anti-CD31 antibody to detect microvessel density; CD31+ cell percentages were then calculated and graphed. […] (F) Images and quantitative comparisons (graph) for Ki67+ proliferating cells in tumor center regions are shown. […]"}, "[2]": {"system": "HUVECs", "assay": "Matrigel tube formation assay, VEGF-induced", "type": "cell-based, human", "conditions": "VEGF 20 ng/mL, 24 h"}, "[3]": {"system": "Lewis lung carcinoma (LLC) cells", "assay": "Lewis lung carcinoma allograft in C57BL/6J mice with immunohistochemistry", "type": "in vivo, mouse", "protocol": "HIF-1α is synthesized by growth factor signaling pathways, such as those of EGFR [30] [31]. Inhibition of HIF-1α in its pathways of synthesis, as well as in its pathway of degradation, would seem to make for a more efficient anti-cancer/anti-angiogenesis treatment. To confirm this, we performed a tumor allogaft experiment using Lewis lung carcinoma (LLC) cells. 1 × 10^6 LLC cells were inoculated into the mouse flank subcutaneously (s.c.), and treatment with Compound 12 (5 mg/kg) and/or gefitinib (an EGFR inhibitor, 50 mg/kg), via intraperitoneal (i.p.) administration, was performed every other day for 20 days. At Day 20, mice were sacrificed and tumor tissue was fixed in formaldehyde for 1 h for further histological examination. […] To confirm the effect of Compound 12 on angiogenesis, we analyzed angiogenesis using the Matrigel plug assay. […] To confirm the effects of Compound 12 on anti-angiogenesis, we sectioned the tumor tissues to determine microvessel density (MSD) via immunohistochemistry (using CD31 antibody).\nFigure 6 Compound 12 suppressed allogaft tumor growth and enhanced the effects of a chemotherapeutic agent (A, B) Lewis lung carcinoma cells were inoculated into flanks of C57BL/6J mice (Day 0). From two days after inoculation, mice were treated intraperitoneally with Compound 12 (5 mg/kg body weight) and gefitinib (50 mg/kg body weight), three times a week, for 18 days and then sacrificed. Tumor size (A) and tumor weight (B) were measured three times a week and on the final day, respectively. Tumor masses were photographed and shown in box below the graph. **P < 0.05 versus control group. (C) Matrigel was treated with DMSO, Compound 12 (100 nM), and gefitinib (5 μM) and inoculated in the flank of C57BL/6J mice. After 10 days matrigel plug was removed and photographed. The content of hemoglobin was quantified and graphed. (D) Tumor tissue sections (10 μm) indicated were stained with H&E and immunostained with anti-CD31 antibody to detect microvessel density; CD31+ cell percentages were then calculated and graphed. Scale bar, 100 μm. **P < 0.05 versus control group. (E) Images and quantitative comparisons (graph) for hypoxic regions, immunostained CA9 protein, and microvessels (CD31+ cells) in tumor center regions are shown. Scale bar, 100 μm. **P < 0.05 versus control group. (F) Images and quantitative comparisons (graph) for Ki67+ proliferating cells in tumor center regions are shown. Scale bar, 100 μm. **P < 0.05 versus control group.\nWe determined levels of hypoxia in tissues via: 1) antibodies against the hypoxic cell marker pimonidazole (PIMO), and 2) checking expression levels of carbonic anhydrase (CA9), a downstream target of HIF-1.\nLLC cells (1 × 10^6) were injected subcutaneously into the flanks of 6-week-old C57BL/6J mice (Day 0)(SLC, Japan). Tumor size and body weight were measured 3 time a week. Tumor tissues were removed at day 20 after completion of injection of vehicle or drugs and fixed with 4% paraformaldehyde (PFA). After tissue processing for frozen sample preparation protocol, samples were embedded in OCT compound and frozen quickly by liquid nitrogen. Frozen blocks were cut into 10 μm sections and stained with hematoxylin and eosin (H&E) for light microscopy. Additional tissue sections for immunohistochemistry were blocked with 5% goat serum in PBST (0.03% Triton X-100 in PBS) and then incubated for 3 h at RT with following primary antibodies, anti-CD31 and anti-Ki67. To detect the hypoxic area in the tumors, Hypoxyprobe-1™ (60 mg/kg, Natural Pharmacia International) was iv injected 90 min before tissue fixation. Tumors were harvested, sectioned and stained with FITC-conjugated anti-Hypoxyprobe antibody."}}, "note": "Entries after “also recorded” stand apart in the source; their conditions may differ."}
{"compound": "COc1ccc(-c2cn(CC3(C)C=Cc4cc([N+](=O)[O-])ccc4O3)nn2)cc1", "note": "(stereo not shown) [Compound 12, 4-(4-methoxyphenyl)-1-((2-methyl-6-nitro-2H-chromen-2-yl)methyl)-1H-1,2,3-triazole]", "values": [{"measurement": "anti-angiogenic activity, Matrigel plug (hemoglobin content)", "setting": "[1]", "result": "anti-angiogenic activity was increased"}, {"measurement": "VEGF-induced tube formation", "setting": "[2]", "result": "significantly inhibited"}, {"measurement": "PIMO/CA9 levels in tumors, Compound 12 combined with gefitinib", "setting": "[3]; LLC allograft tumor sections", "result": "decreased synergistically"}, {"measurement": "levels of PIMO and CA9 in tumors, single agent", "setting": "[3]; LLC allograft tumor sections", "result": "significantly diminished"}, {"measurement": "microvessel density (MSD), CD31, Compound 12 combined with gefitinib", "setting": "[3]; LLC allograft tumor sections", "result": "synergistically decreased MSD"}, {"measurement": "microvessel density (MSD), CD31, single agent", "setting": "[3]; LLC allograft tumor sections", "result": "significantly decreased MSD"}, {"measurement": "cells expressing Ki-67 protein in tumors", "setting": "[3]; LLC allograft tumor sections, single agent", "result": "significantly decreased"}, {"measurement": "tumor growth, single agent", "setting": "[3]; LLC allograft, C57BL/6J mice, i.p., Compound 12 5 mg/kg, gefitinib 50 mg/kg", "result": "inhibited tumor growth significantly"}, {"measurement": "tumor weight", "setting": "[3]; LLC allograft, i.p., 5 mg/kg, final day", "result": "significantly decreased"}, {"measurement": "tumor growth, Compound 12 combined with gefitinib", "setting": "[3]; LLC allograft, i.p., Compound 12 5 mg/kg plus gefitinib 50 mg/kg", "result": "significantly inhibited tumor growth and angiogenesis; also recorded: suppressed tumor growth more effectively than did either drug alone"}]}
